Laboratory results from publication PMC12150326 (The Journal of Organic Chemistry, 2025).
Where “and” joins values, the source holds several entries; their conditions need not be identical. Identical values can stand only once. Like-named read-outs stand apart in the source and are kept apart here.

What was measured:
[1] = system: RXF 393; design: method as in NCI-60 database; settings: RXF 393 ref NCI-60 database, cited from earlier work
[2] = system: KM12; design: method as in NCI-60 database; settings: cited from earlier work
[3] = system: SF-539; design: method as in NCI-60 database; settings: SF-539 ref NCI-60 database, cited from earlier work
[4] = system: MALME-3M; design: method as in NCI-60 database; settings: MALME-3M ref NCI-60 database, cited from earlier work
[5] = system: DU-145; design: method as in NCI-60 database; settings: DU-145 ref NCI-60 database, cited from earlier work
[6] = system: OVCAR-4; design: method as in NCI-60 database; settings: OVCAR-4 ref NCI-60 database, cited from earlier work
[7] = system: MDA-MB-435; design: method as in NCI-60 database; settings: MDA-MB-435 ref NCI-60 database, cited from earlier work
[8] = system: 786-0; design: method as in NCI-60 database; settings: 786-0 ref NCI-60 database, cited from earlier work
[9] = system: OVCAR-3; design: method as in NCI-60 database; settings: OVCAR-3 ref NCI-60 database, cited from earlier work
[10] = system: HL-60(TB); design: method as in NCI-60 database; settings: HL-60(TB) ref NCI-60 database, cited from earlier work
[11] = system: T-47D; design: method as in NCI-60 database; settings: T-47D ref NCI-60 database, cited from earlier work
[12] = Experimental rotational energy barrier (thermal racemization, chiral HPLC); assay type: physicochemical; settings: 135 °C in xylenes, Eyring equation
Protocol: (aR)-6 and (aS)-6 were readily separable from one another and racemic iso -6 through the use of a polysaccharide-based chiral column (Diacel IA column) fitted to an automated medium-pressure liquid chromatography unit (Biotage Isolera Prime). Racemization was observable after heating a solution of either enantiopure (aR)- or (aS)-6 at 135 °C in xylenes over a few hours, and the rate of enantiomerization was extrapolated using the Eyring equation (ΔG ^‡ = 31.2 ± 0.3 kcal/mol). (aR)- and (aS )-iso-6 were separable in an analogous fashion using a chiral IC polysaccharide column. […] Thus, we can project that the rotational energy barrier is […] 37 kcal/mol. However, a computationally determined rotational barrier for iso -6 was 33.5 kcal/mol, which is roughly 3 kcal/mol more than that calculated for 6. One potential explanation for this notable difference in configurational stability is the greater double bond character of the methyl-bearing C^4–C^5 carbon of iso -6 in comparison to the C^5–C^6 in 6, as this would both shorten and rigidify this steric-bearing bond (see Scheme A/B for details). […] Studies have previously described differences in rotational barriers of DAAC (2) and its analogous isomer that, while less dramatic, are consistent with this trend (ΔG ^‡ = 22.1 vs 23.4 kcal/mol). […]
IV. Experimental Profiling of Dihedral Angles
Rotational Energy Barrier Determination. A small spatula tip (~0.2 mg) of either (aR)-6 (aka, (aR)-MT-MTC) or (aS)-6 (aka, (aS)-MT-MTC) was diluted in 2 mL o-xylenes in a large vial containing a stir bar. The solution was heated to 135 °C open to air (temperature set to 135 °C, but fluxuated between 134 and 138 °C).
~100 µL aliquots were extracted from solution using a syringe fitted with a long disposable needle at various time intervals and diluted into automated sample vials containing 500 µL CH2Cl2 to rapidly cool. These samples were monitored on Agilent with an analytical HPLC IA column, using 0 – 40% iPrOH in Hexanes gradient over 30 minutes at a flow rate of 0.5 mL/min, and a pressure of roughly 5 bar). Samples eluted approximately 20 minutes into run, with (aR)-6 eluting first, followed by (aS)-6. Three separate runs were carried out, two of which monitored racemization of (aS)-6, and one of which monitored racemization of (aR)- […]
Integration of the HPLC traces were used to determine enantiomeric excess by calculating the difference between the two enantiomers and dividing that by the sum of the two enantiomers, and then multiplying that […]
provided a slope (corresponding to kracemization), and dividing this number […] providing kenantiomerization (or kent in equation below), with units inverse seconds. A summary of data follows (Table S5), and representative chromatograms illustrated in section VI.

[13] = KM12 ref NCI-60 database, listed as 757/9

## COc1cc2c(c(OC)c1OC)-c1ccc(OC)c(=O)cc1[C@@H](NC(C)=O)CC2 [Colchicine, (−)-Colchicine]
[1]
  GI50: < 10 nM
  Log10GI50: < -8 Molar
  Log10LC50: > -4.00 Molar
[1]; listed as 757/1
  Log10GI50: < -8.00 Molar
  Log10TGI: > -4.00 Molar
[1]; listed as 757/9
  Log10GI50: -7.93 Molar
[1]; listed as 757/21
  Log10GI50: -7.83 Molar and -7.85 Molar
[2]; KM12 (printed KM29) ref NCI-60 database
  GI50: 40 nM
[2]; KM12 ref NCI-60 database
  Log10GI50: -7.35 Molar
[2]; KM12 ref NCI-60 database, listed as 757/1
  Log10GI50: -7.65 Molar
[2]; [13]
  Log10GI50: -7.67 Molar
  Log10LC50: -7.04 Molar
  Log10TGI: -7.95 Molar
[2]; KM12 ref NCI-60 database, listed as 757/21
  Log10LC50: > -4.00 Molar
[3]
  GI50: 30 nM
  Log10GI50: -7.54 Molar
[3]; listed as 757/1
  Log10GI50: -7.48 Molar
[3]; listed as 757/9
  Log10TGI: -6.82 Molar
[3]; listed as 757/21
  Log10LC50: > -4.00 Molar and -4.05 Molar
[4]
  Log10LC50: > -4.00 Molar
[4]; listed as 757/1
  Log10GI50: -7.28 Molar
[4]; listed as 757/9
  Log10GI50: -7.97 Molar
[5]
  GI50: 8320 nM
  Log10GI50: -5.08 Molar
  Log10LC50: > -4.00 Molar
[5]; listed as 757/9
  Log10GI50: -7.29 Molar
  Log10TGI: -5.83 Molar
[5]; listed as 757/21
  Log10GI50: -5.08 Molar
  Log10TGI: > -4.00 Molar
[6]
  GI50: 93300 nM
  Log10GI50: -4.03 Molar
  Log10LC50: > -4.00 Molar
  Log10TGI: > -4.00 Molar
[6]; listed as 757/1
  Log10GI50: -4.45 Molar
[7]
  GI50: < 10 nM
  Log10GI50: < -8 Molar
[7]; listed as 757/9
  Log10LC50: < -8.00 Molar
  Log10TGI: < -8.00 Molar
[7]; listed as 757/21
  Log10GI50: < -8.00 Molar
  Log10LC50: > -4.00 Molar
  Log10TGI: -7.50 Molar
[8]
  GI50: 78 nM
  Log10GI50: -7.11 Molar
  Log10LC50: > -4.00 Molar
  Log10TGI: > -4.00 Molar
[8]; listed as 757/9
  Log10GI50: -7.54 Molar and -7.46 Molar
[8]; listed as 757/21
  Log10GI50: -7.24 Molar and -7.34 Molar and -7.11 Molar
[9]; listed as 757/1
  Log10GI50: -7.58 Molar
  Log10LC50: > -4.00 Molar
  Log10TGI: -7.12 Molar
[9]; listed as 757/9
  Log10GI50: -7.81 Molar
  Log10LC50: < -8.00 Molar
  Log10TGI: -7.44 Molar
[9]; listed as 757/21
  Log10GI50: < -8.00 Molar and -7.73 Molar
[10]
  GI50: 10 nM
  Log10GI50: -7.89 Molar
  Log10LC50: > -4.00 Molar
[10]; listed as 757/1
  Log10GI50: -7.58 Molar
[10]; listed as 757/21
  Log10GI50: < -8.00 Molar and -7.89 Molar
[11]
  GI50: 75700 nM
  Log10GI50: -4.12 Molar
  Log10LC50: > -4.00 Molar
  Log10TGI: > -4.00 Molar
[11]; listed as 757/9
  Log10GI50: > -4.00 Molar
[11]; listed as 757/21
  Log10GI50: -4.21 Molar

## COc1cc(C)c(-c2ccc(OC)c(=O)cc2C)c(OC)c1OC (single isomer, unassigned) [(aR)-6]
[12]
  ΔG‡ of enantiomerization, experimental: 31.2 ± 0.3 kcal/mol
